Laboratory results as given in US9278090B2, “Methods of preventing the development of mucositis and related disorders” (The United States of America, as represented by the …, priority 2012, dated 2016).

System: human primary NOK
Assay: Replicative senescence / cumulative population doublings
Type: cell-based
Details: in the presence of rapamycin; estimated
Method: NOK were plated in collagen coated LabTek chamber slides and treated with vehicle or 20 nM rapamycin for 3 days. Cells were then γ-irradiated or not, and further treated with vehicle or rapamycin for 24 h. For TUNEL assay cells were processed for staining immediately, for SA-β-gal cells were passed and assessed 4 days after plating. Apoptosis was detected using the CLICK-IT™ TUNEL ALEXA FLUOR™ 594 Imaging Assay (Life Technologies, Carlsbad, Calif.) and SA-β-gal activity was measured using the SA-β-gal kit (Cell Signaling Technology, Danvers, Mass.) according to the manufacturer's instructions. The proportion of positive cells was determined by fluorescence or transmission microscopy and quantified using ImageJ. Eight different fields containing approximately 60 cells each were quantified per condition. For the calculation of population doublings cells were cultured as described and treated with vehicle or 20 nM rapamycin. Population doublings were calculated every passage using the formula x=[log 10(NH/N1)]/log 10(2)] (Cristofalo et al., PNAS, 95, 10614-10619 (1998)), where N1 is the inoculum cell number and NH the cell harvest number. To yield the cumulated doubling doublings, the population doublings for each passage was calculated and then added to the population doubling levels of the previous passages.

CO[C@H]1C[C@@H]2CC[C@@H](C)[C@@](O)(O2)C(=O)C(=O)N2CCCC[C@H]2C(=O)O[C@H]([C@H](C)C[C@@H]2CC[C@@H](O)[C@H](OC)C2)CC(=O)[C@H](C)/C=C(\C)[C@@H](O)[C@@H](OC)C(=O)[C@H](C)C[C@H](C)/C=C/C=C/C=C/1C [rapamycin]
cells a single cell will give rise to before senescence: around 10^17 cells
